# “Also recorded” adds a separate entry of the source. Where two headings read alike, the source gives them in different places.
# What was measured:
# [1] = tested on: panel of human leukemia cell lines; test: Cell Titer Glo cell viability assay, 48 h, statements across the whole panel; settings: for cytotoxicity to leukemia cell lines: 12 leukemia cell lines; for IC50: Homo sapiens
# Description: (§1) The activity of the kinase inhibitor collection against a panel of human leukemia cell lines was determined in cell viability assays run over 48 h using the Cell Titer Glo reagent.
# Figure 1 Effects of kinase inhibition on the proliferation of leukemia cells A. Human leukemia cell lines were treated with duplicate serial dilutions of kinase inhibitors and the effect on cell viability was determined by Cell Titer Glo assay after 48 hours. Data shown represents the mean IC50 of each condition from 2 independent experiments. HL-60 cells were treated with serial dilutions of mTor/PI3K B. and MEK C. inhibitors and the effect on cell viability was determined after 48 hours. Data shown is the mean ± SEM of 3 independent experiments.
# (§2) Leukemia and lymphoma cell lines were grown in RPMI containing 10% FCS. […] Cell lines are routinely tested for mycoplasma and genotyped by short tandem repeating (STR) profiling to confirm identity.
# (§3) Compounds were obtained from SynMedChem and dissolved at […] in DMSO. Serial 2-fold dilutions of each compound were prepared in DMSO using a liquid handling robot (Janus, Perkin Elmer). Each dilution (100nL) was transferred to duplicate tissue culture plates containing 50 μL of media containing 5 × 10^3 cells using a 384 well pin tool. Cells were incubated for 48 h and cell viability was determined using Cell Titer Glow reagents as described by the manufacturer (Promega). Data was acquired using a luminescent plate reader (Envision, Perkin Elmer) and analysed using Activity Base (IDBS, Guilford, UK) and visualised using Spotfire (TIBCO, Palo Alto, CA) as described previously. Each cell line was assayed in independent experiments on at least two occasions. […] Serial 2-fold dilutions of each compound were prepared in media containing 0.2% DMSO and 50 μl of each dilution was added to 10^4 cells in 50 μl of media. Cells were incubated for 48 h and cell viability was determined using Cell Titer Glow assay as described above.
# [2] = tested on: human peripheral blood neutrophils; test: Human neutrophil viability by propidium iodide exclusion, flow cytometry; settings: for sensitivity of human neutrophils at 1μM: 18 h; for sensitivity of human neutrophils: G-CSF or GM-CSF primed 1 h, treated 18 h, dose range
# Description: Figure 3 Assessment of human neutrophil viability in response to kinase inhibitor treatment Human peripheral blood neutrophils from three healthy donors were primed with G-CSF or GM-CSF for 1 hour before addition of selected kinase inhibitors (as shown) or DMSO (control) at concentrations as indicated. Neutrophil viability was assessed after 18 hours of treatment, by propidium iodide exclusion measured by flow cytometry. Mean ± SEM shown.
# Donors were 18 years of age or older and had not taken anti-inflammatory medications during the 2 weeks before donating. […] Human neutrophils were then isolated on a three-layer Percoll gradient as described for mouse bone marrow neutrophils as described. […] Neutrophils were resuspended in DMEM/10%FBS, and primed with 10 ng/mL recombinant human G-CSF (Amgen) or 10 ng/mL recombinant human GM-CSF (Leukine, Sargramostim) for 1 h. Compounds or DMSO carrier were added for […]. Viability was assessed by staining neutrophils with propidium iodide and analyzing on a BD Fortessa.
# [3] = tested on: primary murine bone-marrow neutrophils; test: Live cell imaging viability of primary bone-marrow neutrophils; settings: for effect on mouse neutrophil viability (words): G-CSF- or GM-CSF-primed, inhibitors at 1 μM, over 24 hours
# Description: Using a high-throughput live cell imaging approach reported previously [15], we examined the effect of the kinase inhibitors on the viability of bone marrow neutrophils to determine their potential to cause neutropenia (Figure 2). Because G-CSF and GM-CSF are dominant regulators of granulopoiesis and neutrophil survival, and are commonly used in a clinical setting to mobilize hematopoietic stem cells into the blood and increase neutrophil production [27–31], we treated cells with these cytokines immediately prior to drug exposure. The addition of either cytokine prevents constitutive neutrophil apoptosis thereby increasing the window for detection of changes in viability induced by drug treatments.
# For all above, data represent mean ± SEM from three independent samples.
# Mouse bone marrow neutrophils were prepared as described [15]. Neutrophils were resuspended in phenol red-free DMEM/10% FBS for imaging studies. The purity of neutrophil preparations was routinely 96% ± 4% (Mean ± SD, n = 50) as assessed by cytology following May-Grünwald/Giemsa staining.
# Kinase inhibitors were purchased from SYN kinase (Melbourne, Australia) and were used at 1 μM, unless otherwise specified, with dilutions performed in assay buffer containing 0.1% DMSO.
# Viability was monitored using 2 μg/mL PI (Sigma). Images were captured every 30-60 min by the Zeiss Axiovert 200M Microscope at 37 °C/10% CO2. Quantitative analysis was performed using a custom-scripted MetaMorph (Molecular Devices) journal suite incorporating the count nuclei function, reconstruction & subtraction functions and Integrated Morphometry Analysis to select and analyze cells of interest.
# EOL-1 = test: Cell Titer Glo cell viability assay, 48 h; assay type: cell-based, human; settings: 48 h, mean of 2 independent experiments, 0 = less than 10 nM, cell line not given, read-out: IC50 of inhibitors on cell lines, m (mean)
# Description: as §1
# (§4) Figure 1 Effects of kinase inhibition on the proliferation of leukemia cells A. Human leukemia cell lines were treated with duplicate serial dilutions of kinase inhibitors and the effect on cell viability was determined by Cell Titer Glo assay after 48 hours. […] HL-60 cells were treated with serial dilutions of mTor/PI3K B. and MEK C. inhibitors and the effect on cell viability was determined after 48 hours. Data shown is the mean ± SEM of 3 independent experiments.
# as §2, §3
# HEL.92.1.7 = test: Cell Titer Glo cell viability assay, 48 h; assay type: cell-based, human; settings: 48 h, mean of 2 independent experiments, 0 = less than 10 nM, cell line not given, read-out: IC50 of inhibitors on cell lines, m (mean)
# Description: as §1, §4, §2, §3
# HL-60 = test: Cell Titer Glo cell viability assay, 48 h; assay type: cell-based, human; settings: 48 h, mean of 2 independent experiments, 0 = less than 10 nM, cell line not given, read-out: IC50 of inhibitors on cell lines, m (mean)
# Description: as §1, §4, §2, §3
# JURKAT = test: Cell Titer Glo cell viability assay, 48 h; assay type: cell-based, human; settings: 48 h, mean of 2 independent experiments, 0 = less than 10 nM, cell line not given, read-out: IC50 of inhibitors on cell lines, m (mean)
# Description: as §1, §4, §2, §3
# K562 = test: Cell Titer Glo cell viability assay, 48 h; assay type: cell-based, human; settings: 48 h, mean of 2 independent experiments, 0 = less than 10 nM, cell line not given, read-out: IC50 of inhibitors on cell lines, m (mean)
# Description: as §1, §4, §2, §3
# KU-812 = test: Cell Titer Glo cell viability assay, 48 h; assay type: cell-based, human; settings: 48 h, mean of 2 independent experiments, 0 = less than 10 nM, cell line not given, read-out: IC50 of inhibitors on cell lines, m (mean)
# Description: as §1, §4, §2, §3
# MEG-01 = test: Cell Titer Glo cell viability assay, 48 h; assay type: cell-based, human; settings: 48 h, mean of 2 independent experiments, 0 = less than 10 nM, cell line not given, read-out: IC50 of inhibitors on cell lines, m (mean)
# Description: as §1, §4, §2, §3
# MOLT4 = test: Cell Titer Glo cell viability assay, 48 h; assay type: cell-based, human; settings: 48 h, mean of 2 independent experiments, 0 = less than 10 nM, cell line not given, read-out: IC50 of inhibitors on cell lines, m (mean)
# Description: as §1, §4, §2, §3
# MV4;11 = test: Cell Titer Glo cell viability assay, 48 h; assay type: cell-based, human; settings: 48 h, mean of 2 independent experiments, 0 = less than 10 nM, cell line not given, read-out: IC50 of inhibitors on cell lines, m (mean)
# Description: as §1, §4, §2, §3
# OCI-AML3 = test: Cell Titer Glo cell viability assay, 48 h; assay type: cell-based, human; settings: 48 h, mean of 2 independent experiments, 0 = less than 10 nM, cell line not given, read-out: IC50 of inhibitors on cell lines, m (mean)
# Description: as §1, §4, §2, §3
# THP-1 = test: Cell Titer Glo cell viability assay, 48 h; assay type: cell-based, human; settings: 48 h, mean of 2 independent experiments, 0 = less than 10 nM, cell line not given, read-out: IC50 of inhibitors on cell lines, m (mean)
# Description: as §1, §4, §2, §3
# U937 = test: Cell Titer Glo cell viability assay, 48 h; assay type: cell-based, human; settings: 48 h, mean of 2 independent experiments, 0 = less than 10 nM, cell line not given, read-out: IC50 of inhibitors on cell lines, m (mean)
# Description: as §1, §4, §2, §3
# [4] = read-out: IC50 across most of the cell lines examined
structure (smiles),measurement,setting,value
CC[C@@H]1C(=O)N(C)c2cnc(Nc3ccc(C(=O)NC4CCN(C)CC4)cc3OC)nc2N1C1CCCC1 [(R)-BI-2536],cytotoxicity to leukemia cell lines,[1],potently cytotoxic to all lines examined
same,IC50,[1]; read-out: IC50 across all cell lines examined,< 0.3 µM
same,IC50,[1]; [4],≤ 0.01 µM
same,sensitivity of human neutrophils at 1μM,[2],not sensitive
same,sensitivity of human neutrophils,[2],sensitive
CN(C)CC[C@H](CSc1ccccc1)Nc1ccc(S(=O)(=O)NC(=O)c2ccc(N3CCN(Cc4ccccc4-c4ccc(Cl)cc4)CC3)cc2)cc1[N+](=O)[O-] [ABT-737],effect on mouse neutrophil viability (words),[3],no impact on mouse neutrophil viability; also recorded: minimal effects on neutrophils
O=C(Nc1c[nH]nc1-c1nc2cc(CN3CCOCC3)ccc2[nH]1)NC1CC1 [AT9283],effect on mouse neutrophil viability (words),[3],significantly affected neutrophil viability
same,effect on mouse neutrophil viability (words),[3]; listed as AT-9283,cytotoxicity
Cc1cc(Nc2nc(N[C@@H](C)c3ccc(F)cc3)c(C#N)cc2F)n[nH]1 [AZ-960],effect on mouse neutrophil viability (words),[3],significantly affected neutrophil viability
Cc1cc(Nc2nc(N[C@@H](C)c3ncc(F)cn3)ncc2Cl)n[nH]1 [AZD1480],effect on mouse neutrophil viability (words),[3],significantly affected neutrophil viability
same,effect on mouse neutrophil viability (words),[3]; listed as AZD-1480,cytotoxicity
NC(=O)Nc1cc(-c2cccc(F)c2)sc1C(=O)N[C@H]1CCCNC1 [AZD7762],cytotoxicity to leukemia cell lines,[1],potently cytotoxic to all lines examined
same,IC50,[1]; [4],≤ 0.01 µM
same,sensitivity of human neutrophils at 1μM,[2],not sensitive
same,sensitivity of human neutrophils,[2],sensitive
Cn1c(=O)n(-c2ccc(C(C)(C)C#N)cc2)c2c3cc(-c4cnc5ccccc5c4)ccc3ncc21 [BEZ-235],cytotoxicity to leukemia cell lines,[1],potently cytotoxic to all lines examined
same,IC50,[1]; [4],≤ 0.01 µM
same,sensitivity of human neutrophils at 1μM,[2],not sensitive
same,sensitivity of human neutrophils,[2],sensitive
same,effect on mouse neutrophil viability (words),[3],minimal impact
C[C@@H]1CCN(C(=O)CC#N)C[C@@H]1N(C)c1ncnc2[nH]ccc12 [CP690550],effect on mouse neutrophil viability (words),[3],did not
N#CCNC(=O)c1ccc(-c2ccnc(Nc3ccc(N4CCOCC4)cc3)n2)cc1 [CYT387],effect on mouse neutrophil viability (words),[3],did not
CN1CC[C@H](c2c(O)cc(O)c3c(=O)cc(-c4ccccc4Cl)oc23)[C@H](O)C1 [Flavopiridol],effect on mouse neutrophil viability (words),[3],induced rapid cell death
same,effect on mouse neutrophil viability (words),[3]; listed as flavopiridol,significant impact on neutrophil viability
Oc1cccc(-c2nc(N3CCOCC3)c3oc4ncccc4c3n2)c1 [PI103],IC50,"EOL-1; Homo sapiens, EOL1",0.22 µM
same,IC50,HEL.92.1.7; Homo sapiens,1.89 µM
same,IC50,HL-60; Homo sapiens,0.29 µM
same,IC50,JURKAT; Homo sapiens,0.96 µM
same,IC50,K562; Homo sapiens,2.29 µM
same,IC50,"KU-812; Homo sapiens, KU812",3.35 µM
same,IC50,MEG-01; Homo sapiens,1.52 µM
same,IC50,"MOLT4; Homo sapiens, MOLT-4",0.21 µM
same,IC50,MV4;11; Homo sapiens,0.2 µM
same,IC50,"OCI-AML3; Homo sapiens, OCI-AML-3",0.16 µM
same,IC50,THP-1; Homo sapiens,0.88 µM
same,IC50,"U937; Homo sapiens, U-937",0.26 µM
same,effect on mouse neutrophil viability (words),[3],some neutrophil toxicity
CCc1c2c(nc3ccc(O)cc13)-c1cc3c(c(=O)n1C2)COC(=O)[C@]3(O)CC [SN-38],effect of chemotherapeutics on neutrophil viability,"[3]; GM-CSF-primed, dose-dependent, Figure 5D",potently decreased neutrophil viability
Cc1cnc(Nc2ccc(OCCN3CCCC3)cc2)nc1Nc1cccc(S(=O)(=O)NC(C)(C)C)c1 [TG-101348],effect on mouse neutrophil viability (words),[3],cytotoxicity
NC(=O)c1ccc(N(C(N)=O)c2c(F)cccc2F)nc1-c1ccc(F)cc1F [VX702],IC50,"EOL-1; Homo sapiens, EOL1",5.5 µM
same,IC50,HEL.92.1.7; Homo sapiens,> 10 µM
same,IC50,HL-60; Homo sapiens,> 10 µM
same,IC50,JURKAT; Homo sapiens,> 10 µM
same,IC50,K562; Homo sapiens,> 10 µM
same,IC50,"KU-812; Homo sapiens, KU812",> 10 µM
same,IC50,MEG-01; Homo sapiens,> 10 µM
same,IC50,"MOLT4; Homo sapiens, MOLT-4",> 10 µM
same,IC50,MV4;11; Homo sapiens,> 10 µM
same,IC50,"OCI-AML3; Homo sapiens, OCI-AML-3",> 10 µM
same,IC50,THP-1; Homo sapiens,> 10 µM
same,IC50,"U937; Homo sapiens, U-937",> 10 µM
Cc1cc(Nc2cc(N3CCN(C)CC3)nc(Sc3ccc(NC(=O)C4CC4)cc3)n2)[nH]n1 [VX-680],IC50,"EOL-1; Homo sapiens, EOL1",0.07 µM
same,IC50,HEL.92.1.7; Homo sapiens,7.99 µM
same,IC50,HL-60; Homo sapiens,2.45 µM
same,IC50,JURKAT; Homo sapiens,4.96 µM
same,IC50,K562; Homo sapiens,0.43 µM
same,IC50,"KU-812; Homo sapiens, KU812",0.18 µM
same,IC50,MEG-01; Homo sapiens,0.53 µM
same,IC50,"MOLT4; Homo sapiens, MOLT-4",2.59 µM
same,IC50,MV4;11; Homo sapiens,0.05 µM
same,IC50,"OCI-AML3; Homo sapiens, OCI-AML-3",0.8 µM
same,IC50,THP-1; Homo sapiens,5.75 µM
same,IC50,"U937; Homo sapiens, U-937",5.46 µM
COc1cc2c(Nc3ccc(Br)cc3F)ncnc2cc1OCC1CCN(C)CC1 [Vandetanib],IC50,"EOL-1; Homo sapiens, EOL1",0.19 µM
same,IC50,HEL.92.1.7; Homo sapiens,> 10 µM
same,IC50,HL-60; Homo sapiens,7.28 µM
same,IC50,JURKAT; Homo sapiens,6.28 µM
same,IC50,K562; Homo sapiens,2.73 µM
same,IC50,"KU-812; Homo sapiens, KU812",0.82 µM
same,IC50,MEG-01; Homo sapiens,1.51 µM
same,IC50,"MOLT4; Homo sapiens, MOLT-4",6.79 µM
same,IC50,MV4;11; Homo sapiens,0.86 µM
same,IC50,"OCI-AML3; Homo sapiens, OCI-AML-3",> 10 µM
same,IC50,THP-1; Homo sapiens,> 10 µM
same,IC50,"U937; Homo sapiens, U-937",9.46 µM
Nc1ccc(C(=O)Nc2cccc(-c3nc(N4CCOCC4)c4oc5ncccc5c4n3)c2)cn1 [YM201636],IC50,EOL-1,5.88 µM
same,IC50,HEL.92.1.7,7.14 µM
same,IC50,HL-60,4.82 µM
same,IC50,JURKAT,3.94 µM
same,IC50,K562,9.65 µM
same,IC50,KU-812,4.28 µM
same,IC50,MEG-01,9.12 µM
same,IC50,MOLT4,6.99 µM
same,IC50,MV4;11,7.33 µM
same,IC50,OCI-AML3,3.88 µM
same,IC50,THP-1,8.78 µM
same,IC50,U937,2.39 µM

# From paper PMC5601625, “Defining a therapeutic window for kinase inhibitors in leukemia to avoid neutropenia” (Oncotarget, 2017)
